Where two headings read alike, the source gives them in different places.
Assays:
[1] = test system: metastatic B16 melanoma tumors; experiment: Survival of mice carrying metastatic B16 melanoma; type: in vivo, C57BL/6J mice; settings: tumor control 33 days
Protocol: All data were expressed as means±SD. For the survival data, the log-rank test was used to determine differences among tumor control, drug and compound treated groups. For other experiments, differences between treatments were determined by ANOVA. A P<0.05 is considered statistically significant.

[2] = for plasma BUN: groups CP2 and DET10+CP1
Protocol: (§1) Female C57BL/6J mice (National Laboratory Animal Center, Tainan, Taiwan) were given a standard laboratory diet and distilled water ad libitum and kept on a 12-h light/dark cycle at 22±2° C. In total, 63 mice were randomly divided and assigned into 7 groups. Female C57BL/6J mice received an intravenous (i.v) injection with 1×10^5 B16 cells in 200 μL PBS through the tail vein at Day 0. On Day 1, mice were divided into tumor group, CP2 group, DET10 group, DET10+CP1 group, and CP2→DET10 group. The mice were treated intraperitoneally (i.p.) every two days with 2 mg/kg body weight (BW) cisplatin (CP2), 10 mg/kg BW DET (DET10), DET10 mixed with 1 mg/kg BW cisplatin (DET10+CP1), and with CP2 five times and DET10 five times, then CP2 and DET10 taking turns every two days till the end of the experiments (CP2→DET10 group), respectively. The Pre-DET10 group mice were treated i.p with DET (10 mg/kg BW) every two days two weeks before (Day 14) tumor cells inoculation on Day 0, and continuously treated with DET10 till the end of the experiment. The tumor control mice were treated with vehicle DMSO. The mice in the sham control group were injected i.p. with 20 μL DMSO on Day 1 every 2 days throughout the experimental period.
The plasma BUN content, an indication of kidney function, was determined in test animals using QuantiChrom™ Urea Kit (BioAssay Systems).

B16 melanoma cells [3] = experiment: Cell cycle analysis by flow cytometry (sub-G1 fraction); type: cell-based, murine; settings: 24 h, data not shown
Protocol: Both adherent and floating cells were collected, washed with PBS and fixed with 1 mL of ice-cold 70% ethanol overnight at 4° C.

[4] = Primary metabolome of kidney tissues by UPLC/ESI-Q-TOF MS; type: in vivo, C57BL/6J mice
Protocol: Primary metabolome in the kidney tissues of test mice with various treatments were analyzed using UPLC-QTOF MS. Kidney samples (150 mg) were homogenized with 600 μL methanol and 127.5 μL distilled water. The homogenates were vigorously mixed with 1.2 mL chloroform:H2O solution (1:1, v/v) and then put at −20° C. for 20 min. After centrifugation at 13000×g for 10 min at 4° C., the supernatant (water layer) was collected, dried in a vacuum, and then reconstituted in 100 μL of 50% methanol for analysis.
LC-MS was performed with a LC system (ACQUITY UPLC, Waters, Millford, Mass.) coupled to a hybrid Q-TOF mass spectrometer (Synapt HDMS, Waters, Manchester, U.K.). The sample was separated online with a reverse-phase column (HSS T3 C18, 1.8 μm, 2.1 mm×150 mm, Waters, Milford, Mass.) which was kept in a column oven at 40° C. The mobile phases for positive ion mode consisted of 0.1% formic acid in 2% ACN (buffer A) and 0.1% formic acid in 100% ACN (buffer B). The mobile phases for negative ion mode consisted of pure H2O (buffer A) and pure 100% AcCN (buffer B).
The mass spectrometer equipped with lock electrospray ionization probe was operated in both positive and negative (ESI) modes. The electrospray voltage was set at 3 kV for positive ion mode and −2.5 kV for negative ion mode, and the cone voltage was 40V. The cone and desolvation gas flow were 50 and 700 L/h, respectively. A lock mass calibration of sulfadimethoxin (0.5 mg/L) in water/MeOH (50:50, v/v) was introduce by the HPLC pump (LC-10ATVP, Shimadzu, Japan) and split the 5 μL/min to the lockspray probe. The acquisition method was set to one full MS scan (50-990 m/z) with 0.2 sec scan time in centroid data mode.
The UPLC-MS data were analyzed using MarkerLynx XS version 4.1 SCN639 (Waters, Millford, Mass.). In this application, the peaks in the 0.5-4 min LC-MS data were detected and the noise reduced in both LC and MS domains. The extracted peak information was also processed to remove the peak-to-peak noise, deisotope and filter the MS peak with the intensity lower than 50 counts. A list of the intensities of the processed peaks for each of the LC-MS data was generated using retention time (RT) and m/z data pairs as the identifier of each peak. The processed data for each sample were combined and aligned for each of the RT-m/z pair to generate the final data table. The ion intensities for each peak were then normalized within each sample and the 3-dimensional data, peak identifier (RT-m/z pair), sample name, and ion intensity were analyzed by principle component analysis (PCA). Partial least-squares-discriminant analysis (PLS-DA), a supervised chemometric procedure, was used to define the maximum classification and separation of independent samples.

B16 melanoma cells [5] = experiment: MTT cell viability assay, B16 cell proliferation; type: cell-based, murine; settings: 24 h, 37° C., read-out: IC50, inhibition of B16 cell proliferation
Protocol: Human melanocytes and murine B16 melanoma cells obtained from the American Type Culture Collection (ATCC®, MD) were grown overnight in a 10-mm petri-dish at 37° C. in MEM and RPMI medium 1640, respectively, supplemented with 10% heat-inactivated FBS, 100 units/mL penicillin, and 100 μg/mL streptomycin, in a humidified 5% CO2 incubator. Cell viability was measured by MTT-based colorimetric assay. The formula to calculate viable cell (%) is as follows: Cell viability (%)=(sample OD550/control OD550)×100% Synergism of DET and Cisplatin

[6] = Body weight of B16 tumor-bearing mice; type: in vivo, C57BL/6J mice; settings: groups CP2 (cisplatin 2 mg/kg BW) and DET10+CP1, i.p. every two days; P<0.05
Protocol: Female C57BL/6J mice (National Laboratory Animal Center, Tainan, Taiwan) were given a standard laboratory diet and distilled water ad libitum and kept on a 12-h light/dark cycle at 22±2° C. In total, 63 mice were randomly divided and assigned into 7 groups. Female C57BL/6J mice received an intravenous (i.v) injection with 1×10^5 B16 cells in 200 μL PBS through the tail vein at Day 0. On Day 1, mice were divided into tumor group, CP2 group, DET10 group, DET10+CP1 group, and CP2→DET10 group. The mice were treated intraperitoneally (i.p.) every two days with 2 mg/kg body weight (BW) cisplatin (CP2), 10 mg/kg BW DET (DET10), DET10 mixed with 1 mg/kg BW cisplatin (DET10+CP1), and with CP2 five times and DET10 five times, then CP2 and DET10 taking turns every two days till the end of the experiments (CP2→DET10 group), respectively. The Pre-DET10 group mice were treated i.p with DET (10 mg/kg BW) every two days two weeks before (Day 14) tumor cells inoculation on Day 0, and continuously treated with DET10 till the end of the experiment. The tumor control mice were treated with vehicle DMSO. The mice in the sham control group were injected i.p. with 20 μL DMSO on Day 1 every 2 days throughout the experimental period. Tumor volumes were measured every 3 days and the body weight recorded once a week.

B16 cells = experiment: Time-lapse cell motility assay; type: cell-based, murine; settings: time-lapse videomicroscopy over 24 h, 3 μM DET, 40 μM CP, 3 μM DET plus 40 μM CP; for migration velocity of B16 cells: vehicle control 0.35±0.09; for migration distance of B16 cells: vehicle control 488.2±147.1
Protocol: Cell motility was assessed by time-lapse videomicroscopy. B16 cells were seeded in 6 cm dish for 3 h and maintained at constant temperature (37° C.) and 5% CO2 chamber throughout the experimental period. Cells were observed under an inverted microscope (Zeiss Axiovert 200M), and phase-contrast snap photographs (one frame every 30 min) were digitally recorded for 24 h. Cell paths were generated from centroid positions, and cell velocities of migration were analyzed using the tracking object of the Metamorph software (Molecular Device).

[7] = Histology, TUNEL and F4/80 immunostaining of kidney tissues
Protocol: as §1
Paraffin-embedded kidney tissues were prepared from three mice in each group on Day 21. The paraffin-embedded kidney was sectioned (4 μm) and underwent H&E staining. In situ apoptotic cells in kidney tissues were determined by TUNEL assay (Chemicon) and the mean proportions of positive TUNEL cells were measured using AxioVision software (Carl Zeiss MicroImaging, Inc.). Immunostaining of macrophage infiltration in the kidney tissues was performed using F4/80 antibody and visualized with goat anti-mouse Cy3-labeled secondary antibodies (Jackson ImmunoResearch), counterstained with DAPI (1 μg/mL).

[8] = Day 21
Protocol: Female C57BL/6J mice (National Laboratory Animal Center, Tainan, Taiwan) were given a standard laboratory diet and distilled water ad libitum and kept on a 12-h light/dark cycle at 22±2° C. In total, 63 mice were randomly divided and assigned into 7 groups. Female C57BL/6J mice received an intravenous (i.v) injection with 1×10^5 B16 cells in 200 μL PBS through the tail vein at Day 0. On Day 1, mice were divided into tumor group, CP2 group, DET10 group, DET10+CP1 group, and CP2→DET10 group. The mice were treated intraperitoneally (i.p.) every two days with 2 mg/kg body weight (BW) cisplatin (CP2), 10 mg/kg BW DET (DET10), DET10 mixed with 1 mg/kg BW cisplatin (DET10+CP1), and with CP2 five times and DET10 five times, then CP2 and DET10 taking turns every two days till the end of the experiments (CP2→DET10 group), respectively. The Pre-DET10 group mice were treated i.p with DET (10 mg/kg BW) every two days two weeks before (Day 14) tumor cells inoculation on Day 0, and continuously treated with DET10 till the end of the experiment. The tumor control mice were treated with vehicle DMSO. The mice in the sham control group were injected i.p. with 20 μL DMSO on Day 1 every 2 days throughout the experimental period. […] On Day 21 post-tumor injection, three mice from each group were euthanized and blood collected for complete blood count (CBC) analysis.
Complete blood samples of test mice in each group on Day 21 were subjected to the analysis of white blood cell (WBC), neutrophil (N), monocyte (M), basophil (B) red blood cell (RBC), platelet (PLT), hemoglobin (Hb), and hematocrit (Ht) and other cell counts with a hemacytometer (FIG. 10).

[9] = test system: lung metastasis of B16 melanoma (B16-COX-2/Luc cells); experiment: Inhibition of lung metastasis of B16 cells in syngeneic mice, in vivo bioluminescence imaging; set-up: species or system C57BL/6J mice; settings: for mean bioluminescence intensity compared to tumor group (100%): Day 30; for remained bioluminescence intensity relative to tumor control group (100%): Day 21
Protocol: Stable B16 melanoma cell clone carrying COX-2 promoter driven-luciferase (pGL-COX-2/Luc) reporter gene plasmid was established. […] The B16-COX-2/Luc stable cell line was used in the mouse lung metastasis experiments.
After 10 minutes of incubation with luciferin, each mouse was placed in a right lateral decubitus position and a digital grayscale animal image was acquired using an IVIS spectrum (Xenogen Corp.). The acquisition and overlay of a pseudocolor image was taken, which represents the spatial distribution of detected photons emerging from active luciferase within the animals. Signal intensity was quantified using an IVIS Spectrum system (Xenogen Corp.) as the sum of all detected photons per second on Day 0, 7, 14, 18, 21, 23, 26 and 30 of treatment.

B16 melanoma cells [10] = experiment: Migration and invasion assay (trans-well); type: cell-based, murine; settings: 24 h; for B16 melanoma cell invasion: Matrigel
Protocol: B16 cells (1×10^5 cells) were cultured in culture-inserts of boyden chamber (ibidi, Germany) for 12 h. The culture-inserts were removed and added DET or cisplatin alone or in combination for 24 h. B16 cells were added into a 24-transwell permeable plate (8.0 μm polycarbonate membrane, 6.5 mm insert; Corning Incorporated, Corning, N.Y.) coated with Matrigel basement membrane matrix. The bottom wells received 50 μL medium having the same concentration of serum as the top well, either 1% or 10% FBS. Cells were removed from the upper and lower sides of the filter after 24 h. The ratio of the counts obtained from the bottom versus total counts from both sides was used to determine migration and invasiveness. The invading cells remaining in the well were counted in six randomly chosen low-power fields at 100× original magnification by inverted fluorescence microscopy.

Human melanocytes = experiment: MTT cell viability assay, normal melanocytes; type: cell-based; settings: 24 h
Protocol: Cell viability was measured by MTT-based colorimetric assay.

[11] = i.p. every two days from Day 1, groups CP2, DET10, DET10+CP1, CP2→DET10
[12] = Day 21, groups CP2, DET10, DET10+CP1, CP2→DET10, i.p. every two days from Day 1
[13] = groups CP2, DET10, DET10+CP1, CP2→DET10, compared with control tumor-bearing group
[14] = i.p. every two days from Day 1, groups CP2 (cisplatin 2 mg/kg BW), DET10 (DET 10 mg/kg BW), DET10+CP1, CP2→DET10
[15] = pre-DET and DET groups, assignment to group unclear
[16] = Pre-DET10 group: DET 10 mg/kg BW i.p. every two days from two weeks before tumor inoculation to end

N.N.[Cl][Pt][Cl] [CP, cis-diamminedichloroplatinum(II), reference compound]
median survival [1, 11]: 43 days
plasma BUN ([2]; Day 14, sham control 25.4±4.1): 61.1 ± 4.3 mg/dL
plasma BUN ([2]; Day 21, sham control 25.1±4.1): 67.3 ± 0.1 mg/dL
sub-G1 (apoptotic) cell fraction (B16 melanoma cells [3]): 9%
decrease in alanine, aspartate, phenylalanine, and tryptophan in kidney tissues, in comparison with the sham control ([4]; CP2 group): 1.7- to 2.4 fold
increase in pyruvate, citrulline, creatine, uric acid, hippuric acid, and 5-HIAA in kidney tissues, in comparison with the sham control ([4]; CP2 group): 1.6- to 12.5 fold
increase in 5-HIAA in kidney tissues ([4]; groups CP alone, DET+CP, CP→DET): 8.6 fold
IC50 (B16 melanoma cells [5]): 45 µM
body weight of test mice [6]: significantly decreased
migration velocity of B16 cells (B16 cells): 0.26±0.14 μm/min
migration distance of B16 cells (B16 cells): 376.6±100 μm
H&E staining of kidney tissues ([7]; Day 21, CP2 group, cisplatin 2 mg/kg BW i.p. every two days): severe glomerular congestion and tubular epithelial atrophy
TUNEL-positive (apoptotic) cells in renal tissues [7, 12]: observed mostly
macrophage/monocyte infiltration in renal tissues (F4/80 immunostaining) [7, 13]: much significant
neutrophil population, times higher than the sham control ([8]; CP2 group): 3.5 times
neutrophil population, times higher than the tumor group ([8]; CP2 group): 2.55 times
effect on the peripheral blood cells profile (haematological toxicity) ([8]; groups CP2 and DET10): severe haematological toxicity
mean bioluminescence intensity compared to tumor group (100%) [9, 14]: 2%
B16 melanoma cell migration (B16 melanoma cells [10]): inhibited
B16 melanoma cell invasion (B16 melanoma cells [10]): inhibited

C=C(C)C(=O)O[C@H]1CC2=C[C@@H](C/C(C)=C/[C@H]3OC(=O)C(=C)[C@H]13)OC2=O [DET, deoxyelephantopin]
median survival ([1]; Pre-DET10 group: DET 10 mg/kg BW i.p. from two weeks before tumor inoculation): 43 days
median survival [1, 11]: 39 days
change of BUN level compared to the sham control group ([2]; DET10 group, DET 10 mg/kg BW i.p. every two days from Day 1): little or no detectable changes
change of BUN level compared to the sham control group ([2]; Pre-DET10 group, DET 10 mg/kg BW from two weeks before tumor inoculation): little or no detectable changes
sub-G1 (apoptotic) cell fraction (B16 melanoma cells [3]): 8.5%
increase in carnitine in kidney tissues [4, 15]: 2.3 fold
increase in pyruvate in kidney tissues [4, 15]: 1.6 fold
increase in taurine in kidney tissues [4, 15]: 2.1 fold
IC50 (B16 melanoma cells [5]): 4.5 µM
toxicity on normal human melanocytes (Human melanocytes): little or no toxicity
migration velocity of B16 cells (B16 cells): 0.16±0.06 μm/min
migration distance of B16 cells (B16 cells): 224.1±85.9 μm
TUNEL-positive (apoptotic) cells in renal tissues ([7]; Day 21, Pre-DET10 group, DET 10 mg/kg BW from two weeks before tumor inoculation): not detectable
TUNEL-positive (apoptotic) cells in renal tissues [7, 12]: not detectable
macrophage/monocyte infiltration in renal tissues (F4/80 immunostaining) ([7]; Pre-DET10 group): little or no detectable inflammatory cell infiltration
macrophage/monocyte infiltration in renal tissues (F4/80 immunostaining) [7, 13]: little or no detectable inflammatory cell infiltration
effect on the peripheral blood cells profile (haematological toxicity) ([8]; Pre-DET10 group): did not cause deleterious effect
effect on the peripheral blood cells profile (haematological toxicity) ([8]; groups CP2 and DET10): did not cause deleterious effect
levels of neutrophil (N) counts ([8]; groups DET10, DET10+CP1, CP2→DET10): Increase levels
remained bioluminescence intensity relative to tumor control group (100%) [9, 16]: 15%
remained bioluminescence intensity relative to tumor control group (100%) [9, 14]: 49%
mean bioluminescence intensity compared to tumor group (100%) [9, 16]: 23%
mean bioluminescence intensity compared to tumor group (100%) [9, 14]: 45%
B16 melanoma cell migration (B16 melanoma cells [10]): inhibited
B16 melanoma cell invasion (B16 melanoma cells [10]): inhibited
